One data set deals with C57 black mice. The data set is described as follows: In vivo toxicity, repeated s.c. or i.p. injection. The note with it: 0.21 mg/kg s.c. or i.p. every 3 days for 2 weeks.
Data set [1] has as its system Ha-ras-transformed rat1 cells. The data set is described as follows: Transformed phenotype (multi-layered clumps) of ras-transformed rat1 cells. In kind it is cell-based, rat. The note with it: 5 days. From the text: The two compounds had no effect on the morphology of the non-transformed cells. (FIG. 9B and 9C).
For data set [2], the system named is Erb-B2 transformed 3T3 cells (RB-22). The data set can be described thus: Growth of Erb-B2 transformed cells. It is filed as cell-based. The settings on record: 25 μM. The text has this:
The cell lines employed were rat1, -EJ, which are rat1 cells stably expressing Val- 12 activated human Ha-ras gene (Land H. et al., Nature, 304, 596-602, (1983)); V-raf-3T3, which are 3T3 cells stably expressing the V-raf gene (Xu, N., et al., Proc. Natl. Acad. Sci., 90, 6741-6745); RB-22, which are 3T3 cells stably expressing the rat Erb-B2 gene (Peles, et al., EMBO J., 10, 2077-2086 (1991)) CO6O cells (SV40-CHO), which are CHE cells stably expressing the SV-40 T-antigen gene (Lavi, Proc. Natl. Acad. Sci., 78, 6144-6148 (1981)); human endometrial carcinoma cell line HEC1A, which are cells that express activated K-ras (Enomoto T., Cancer Res., 50, 6139-6145; mouse B16F10 melanoma cells, rat pheochromocytoma PC12 cells, […] cells CHE and COS cells.
HEC1A, V-raf-3T3 and SV40-CHE cells were grown in Dulbecco's modified Eagle medium (DMEM) containing 10% fetal calf serum (FCS), 4 mM L-glutamine, 10 μg/ml streptomycin and 10 U/ml penicillin. Rat1 and -EJ cells were grown in the same medium except that it was supplemented with 12.5 U/ml nyostatin. RB-22 cells were grown in modified DMEM (1 mM sodium pyruvate, 20 mM sodium bicarbonate)/10% FCS containing 4 mM L-glutamine, […] streptomycin, 10 U/ml penicillin. […]
The potent PPMTase inhibitor FTS was used to examine selectivity of the drugs towards ras-dependent growth-signaling pathways. […] Cells were counted on day 5 of the experiment.

The subject of data set [3] is HEC1A, rat1 and ras-transformed rat1 cells. The data set can be described thus: In vitro toxicity: MTT and trypan blue staining. In kind it is cell-based. The note with it: human (HEC1A), rat (rat1, ras-transformed rat1), 50 μM. From the text:
Cells were counted following 3, 7 and 10 days of beginning of treatments with drugs. For counting, cells were detached from plates with trypsin/EDTA, and collected by a low speed spin in the presence of DMEM/10% FCS. The pelleted cells were resuspended in a small volume of DMEM/10% FCS and counted under the microscope. Viability of cells was estimated by staining with (3-(4,5-dimethylthiosol-2-yl)-2,5-diphenyltetrazolium bromide (MTT) and microscopic examination of the stained and unstained cells, or spectrophotometric estimation (OD490, 590) of the total stain in each well. Non viable cells were estimated by the trypan blue exclusion method.
In order to determine the long term effects of both FTA and FTS on cell survival, a colorometric method using MTT, which stains only live cells, was employed (Mosmen, F. J. Immunol. Meth., 65, 55-63 (1983), and tryptan blue exclusion staining in which only dead cells are stained, were employed. Cells were incubated with 50 μM of either FTA or FTS for a period of up to 5 days in culture. This concentration is 10-30 times the Ki values of FTS and FTA as calculated above. As control served cells incubated in 0.1% DMSO with no drug.

Data set [4] has as its system Ha-ras transformed rat1 (EJ) cells. The data set can be described thus: Tumor growth in nude mice implanted with Ha-ras-transformed rat1 cells. It is filed as in vivo, nude mice (CD1-Nu). How it is done:
Male nude mice (CD1—Nu) were obtained from the Weizmann Institute of Science, Rehovot, Israel. Groups of 5 to 8 mice (3-4 weeks old, 25±2 gr body weight) were used in each experiment for both; controls and FTS treatment. Cells (Ha-ras transformed rat1 (EJ) cells, 2×10^6 cells in 100 μl PBS) were injected systematically (s.c.). Cell implantation and drug administration began on the same day. The EJ cells were prepared from confluent cultures. Cells were detached with trypsin/EDTA, washed with DMEM/10% FCS followed by 3 times PBS washes. A suspension of 2×10^7 cells/ml was prepared and used for experiment within 15-30 min. of preparation.
FTS was prepared as a stock solution (0.225M) in ethanol. It was diluted just prior to the drug administration with PBS to yield a solution of 1.35 mM FTS, 0.6% ethanol. Under these conditions FTS remained in solution for the period of time required for administration.
Experimental mice received 100 μl of the FTS solution, respectively, daily or every other day. Controls received the appropriate administration of 0.6% ethanol in PBS. Tumor growth was monitored by daily observations and by size measurement using a millimetric caliper (two dimensions of the tumor size were taken usually twice a week).
Data were expressed in terms of tumor size (cm^2) in each mouse as a function of time.
Ha-ras transformed rat1 cells (2×10^6) were implanted beneath the skin of the right hind leg of nude mice. The mice received a systemic s.c. injection of either the solvent (0.6% ethanol in PBS) or FTS, starting on the day of cell implantations. Two sets of experiments were performed. In the one set the mice received 3.6 mg/kg FTS daily. Tumors sizes measured every 3-4 days beginning on day 10 of the experiment. […] Out of the 8 control mice, 6 developed tumors having a size of 4 cm^2 or greater and 2 developed tumors of 2 cm^2 or less. In another set of experiments mice received 1.6 mg/kg FTS every other day.

In data set [5] the test system is Rat1 cells stimulated with EGF or bFGF. The data set can be described thus: Mitogenic effect of EGF and bFGF in Rat1 cells. It is filed as cell-based, rat. The note with it: 25 μM; for Number of cells (% of control): day 5. How it is done: The potent […] inhibitor FTS was used to examine selectivity of the drugs towards ras-dependent growth-signaling pathways. In these experiments cells transformed by Erb-B2, that acts upstream of ras in the ras pathway, and cells transformed by V-raf or by T-antigen, that act independently of ras, were studied. The cells were placed at a density of 2×10^3 cells/well and received on the day of plating either solvent (controls) or 25 μM FTS. Cells were counted on day 5 of the experiment. […] At this concentration, however, no effects of FTS on the growth of V-tar transformed or of T-antigen-transformed cells were observed. The results in Table VI also indicate that the mitogenic effect of bFGF and EGF in Rat1 cells is inhibited by FTS.

Protocol for C57 black mice: Toxicity tests in intact animals were performed with C57 black and with bulb-C mice.
Four groups, each comprising 9 mice, were used. Animals of group one received 100 μl s.c. injections of 150 μM FTS in salient solution containing 1% DMSO (0.21 mg drug/kg body weight). The drug was injected every 3 days for 2 weeks. Group two, which served as controls, received the solvent/saline solution for the same period of time.

For the compound `CC(C)=CCC/C(C)=C/CC/C(C)=C/CSc1ccccc1C(=O)O` [FTS, (3,7,11-trimethyl-dodeca-2,6,10-trienyl)-2-thiobenzoic acid], the “deaths out of the 18 drug treated animals” value with C57 black mice is “one”. The “effect on transformed phenotype” value in data set [1] (5 μM, FIG. 9E) is given as “reversed the transformed phenotype”; in data set [1] (10 μM, FIG. 9F), “reversed the transformed phenotype”. In data set [2], the “effect on growth of Erb-B2-transformed cells” value was “sufficient to inhibit growth”. Moreover, the “Number of cells (% of control)” value was 36 % of control in data set [2] (Brb-B2 transformed 3T3, day 5); 40 ± 5 % of control in data set [5] (Ras1 + 10 mg/ml ECP); 42 ± 3 % of control in data set [5] (Ras1 + 50 mg/ml bPCP). The “cells stained with trypan blue (dead)” value in data set [3] is given as “less than 5%”. The “effect on tumor growth” value in data set [4] (1.6 mg/kg every other day, FIG. 13) is given as “inhibitory effects”; in data set [4] (3.6 mg/kg daily, systemic s.c., FIG. 12), “profound inhibition of tumor growth”. Further, the “mice out of 8 that developed tumors of 2 cm2 or less” value in data set [4] (3.6 mg/kg daily, systemic s.c.) is 6. The “mice out of 8 that developed tumors of greater than 4 cm2” value in data set [4] (3.6 mg/kg daily, systemic s.c.) is given as 2. Also, the “effect on the mitogenic effect of bFGF and EGF in Rat1 cells” value in data set [5] is “inhibited”.

The record behind these values is patent publication USRE39682E1, “Farnesyl derivatives and pharmaceutical compositions containing them” (Ramot at Tel Aviv University Ltd., priority 1993, dated 2007).
